# “And” between values parts separate entries of the source, which are not always exact repeats. Equal entries are not always repeated. Where two headings read alike, the source gives them in different places.
# Legend:
# Solubility in water = format: physicochemical; details: water
# [1] = tested on: S. epidermidis strain 9142; assay: Biofilm determination, crystal violet, S. epidermidis; format: cell-based, Staphylococcus epidermidis
# Procedure: (§1) Staphylococcal strains were cultured overnight in TSB at 37° C. with shaking, diluted in fresh medium to an OD600 of 0.01 and 200 W was dispensed into sterile flat bottom polystyrene 96 well microtiter plates (Costar 3596, Corning Inc.). […] Each compound and dilution was tested in triplicate. The plates were incubated overnight at 37° C. in a humidified incubator, without shaking and both growth and biofilm accumulation were determined at 16 h.
# (§2) Following recording of turbidities, the culture medium was aspirated and the wells were washed three times with distilled water, blotted on paper towels, and fixed with 75% ethanol for 10 minutes.
# (§3) To visualize biofilm material, 0.5% crystal violet was added to each well and after 5 minutes was removed and the wells washed three times with distilled water. Plates were read using a microplate reader at a wavelength of 570 nm. The dye was then extracted by adding 200 W of 95% ethanol, and the absorbance was read again at 570 nm. All assays were performed in triplicate and the mean and standard deviation determined. Generally, the ethanol-solubilized crystal violet was more reliable and these determinations are reported throughout.
# [2] = tested on: EAEC JM221 (Type 1 fimbriae); assay: Hemagglutination of guinea pig erythrocytes, EAEC JM221; format: cell-based, Escherichia coli; details: EAEC JM221 grown statically in LB 48 h with 20 μg/ml NTZ; further: key: +++ = strong hemagglutination reaction; + weak; − no hemagglutination
# Procedure: HA assays were performed in 96-well microplates as described in (1). Bacteria grown over night without shaking (MinA-G medium with and without 25 μg/ml NTZ) were suspended in PBS and diluted to OD660 of […] was mixed with an equal volume of 3% (vol/vol) sheep erythrocyte suspension containing 1% mannose, except when type I fimbriae producing strains were assayed. In the latter, bacteria were grown statically in LB medium (with and without NTZ) for 48 h and HA was determined with guinea pig erythrocytes. HA reactions were incubated at 4° C. for […] HA was determined visually against controls receiving no NTZ. All assays were prepared in triplicate and repeated twice.
# EAEC strain 042 = assay: Quantitative biofilm assay, EAEC; format: cell-based, Escherichia coli
# Procedure: A quantitative biofilm assay was used to determine the effect of NTZ on biofilm formation (41). Strain 042 was grown overnight at 37° C. with shaking and inoculated 1:100 in 200 μl culture medium in Costar 96-well, flat-bottom, polystyrene microtiter plates containing appropriate concentrations of NTZ. Plates were incubated statically at 37° C. in a humidified incubator. At 24 h, bacterial growth was measured by either transferring […] aliquots to another microtiter plate to determine turbidity or by diluting 100 μl aliquots 1:100 in 9.9 ml PBS for quantitative plate counts on LB medium. Bacterial counts in triplicate are reported as cfu/ml. Biofilm was visualized following staining with 0.5% crystal violet (41) and the absorbance was read at 570 nm using a microplate reader (Molecular Dynamics). All experiments were in triplicate and reported as mean and standard deviation.
# Assays were initially performed with and without 25 μg/ml NTZ using five different growth media: DMEM, DMEM with 0.4% glucose, LB, LB with 0.4% glucose, and our chemically defined medium containing 1% glucose. E. coli DH5αt served as a negative control for biofilm formation. Assays were then run with increasing concentrations of NTZ (0, 5, 10, 15, 20, 25 μg/ml) both in the chemically defined medium and in DMEM with 0.4% glucose. […]
# [3] = reference (9); cited from earlier work
# E. coli = assay: MIC testing by broth dilution, E. coli plank; format: cell-based, Escherichia coli
# How it was run: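 Twofold broth microdilution from 32 μg/ml down to 0.06, in LB for E. coli, Trypticase Soy for S. epidermidis (planktonic) and Brain Heart Infusion for C. jejuni. C. difficile: anaerobic disk diffusion on Wilkins Chalgrin agar, inhibition zone expressed as a ratio to the NTZ zone.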
# E. coli biofilm = E. coli biofilm assay (activity tables); format: cell-based, Escherichia coli
# How it was run: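 After 24 h static culture at 37 °C in wells containing NTZ, strain 042 (1:100 inoculum) biofilm was quantified by 0.5% crystal violet absorbance at 570 nm. Planktonic growth was taken from turbidity or LB plate counts as cfu/ml; all runs triplicate, reported as mean and SD.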
# [4] = tested on: S. haemolyticus strain 33208; assay: Biofilm determination, crystal violet, S. haemolyticus; format: cell-based; details: Staphylococcus haemolyticus; S. haemolyticus strain 33208, crystal violet; read-out: IC50 biofilm production
# Procedure: as §1, §2, §3
# [5] = tested on: PFOR (pyruvate ferredoxin oxidoreductase); assay: Direct PFOR enzyme assay; format: biochemical
# MRSA = assay: MIC testing by broth dilution, MRSA; format: cell-based, Staphylococcus aureus
# How it was run: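 Values are broth-dilution MICs, defined as the well showing no growth on visual reading after 24 h; the tested range was 32 to 0.06 μg/ml, in organism-specific media (LB, Trypticase Soy, Brain Heart Infusion). The C. difficile entries come instead from anaerobic Kirby-Bauer disk zones, normalised to NTZ.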
smiles,measurement,setting,value
"CC(=O)Oc1ccccc1C(=O)Nc1ncc([N+](=O)[O-])s1 [Nitazoxanide, 2-(acetyloxy)-N-(5-nitro-2-thiazolyl)benzamide, reference compound]",solubility,Solubility in water,< 32 µg/mL
same,IC50 biofilm production,"[1]; S. epidermidis strain 9142, crystal violet, listed as NTZ",4 µg/mL
same,IC50,"[1]; Staphylococcus epidermidis, 9142, S. epidermidis strain 9142, crystal violet, read-out: IC50 biofilm production",2.5 µg/mL and ~8 µM
same,IC50,"[1]; Staphylococcus epidermidis, 9142, clinical S. epidermidis isolates and strain 5179-R1, read-out: IC50 biofilm formation, all strains tested",2.5 to 5 µg/mL
same,Biofilm accumulation on the bottom of flasks,"[1]; static (microaerobic) growth, 15 μg/ml",completely ablated
same,"HA (guinea pig erythrocytes), bacterial OD660 0.5",[2],−
same,"HA (guinea pig erythrocytes), bacterial OD660 1.0",[2],−
same,"HA (guinea pig erythrocytes), bacterial OD660 1.5",[2],+
same,Inhibition of biofilm formation,"EAEC strain 042; EAEC 042, MinA-G, 20 μg/ml",almost complete inhibition
same,IC50,"EAEC strain 042; Escherichia coli, EAEC 042, DMEM and MinA-G media, read-out: IC50 biofilm production",~12 µg/mL
same,pKa,[3],6.2
same,MIC,"E. coli; Escherichia coli, broth dilution, LB medium, 24 h, read-out: MIC (μM) E. coli Plank",104 µM
same,MIC,"E. coli; Escherichia coli, planktonic, Furan analogues table, read-out: MIC E. coli Plank",104 µM
same,MIC,"E. coli; planktonic, 2-amino-3,5-dinitrothiophene analogues table, read-out: MIC E. coli Plank",104.1 µM
same,MIC,"E. coli; planktonic, Thiophene analogues table, read-out: MIC E. coli Plank",104.1 µM
same,MIC,"E. coli biofilm; Escherichia coli, biofilm, Furan analogues table, read-out: MIC E. coli Biofilm",26 µM
same,MIC,"E. coli biofilm; Escherichia coli, read-out: MIC (μM) E. coli Biofilm",26 µM
same,MIC,"E. coli biofilm; biofilm, 2-amino-3,5-dinitrothiophene analogues table, read-out: MIC E. coli Biofilm",26.0 µM
same,MIC,"E. coli biofilm; biofilm, Thiophene analogues table, read-out: MIC E. coli Biofilm",26.0 µM
same,IC50,[4],2.5 µg/mL
same,PFOR inhibition relative to nitazoxanide (=100),[5],100%
same,PFOR inhibition relative to nitazoxanide (=100),"[5]; * biphasic initial inhibition followed by uninhibited rate, ** caused some precipitant in extract",100%
same,PFOR inhibition relative to nitazoxanide (=100),[5]; Furan analogues table,100%
same,PFOR inhibition relative to nitazoxanide (=100),[5]; Thiophene analogues table,100%
same,MIC,"MRSA; 2-amino-3,5-dinitrothiophene analogues table, read-out: MIC MRSA",39.1 µM
same,MIC,"MRSA; Staphylococcus aureus, MRSA, broth dilution, Trypticase Soy, 24 h, read-out: MIC (μM) MRSA",39.1 µM
same,MIC,"MRSA; Thiophene analogues table, read-out: MIC MRSA",39.1 µM

# From patent publication US8835644B2, “Broad spectrum benzothiophene-nitrothiazolide and other antimicrobials” (University of Virginia Patent Foundation, priority 2009, dated 2014)
